Data as given in patent US20080227655A1, “Assessment of effect of an agent on a human biological condition using rodent gene expression panels” (priority 2006, published 2008).
Where “and” joins values, the source holds several entries; their conditions need not be identical. Equal entries are not always repeated.

Tested on: custom murine 40-gene Precision Profile for Rheumatoid Arthritis, whole blood
Experiment: KRN (K/BxN) serum transfer induced arthritis model, whole blood gene expression by QPCR, vehicle or dexamethasone treatment
Type: in vivo, female BALB/c mice
Experimental: Whole blood gene expression changes were evaluated in vehicle control and drug-treated murine subjects across two murine models of arthritis according to the following arthritis models:
KRN Transgenic Mouse (K/B×N): K/B×N serum from transgenic mouse used to induce arthritis in female BALB/c mice (n=54). Collagen Induced Arthritis (CIA): Bovine type II collagen used to induce arthritis in male DBA/1 mice (n=54).
In addition, naïve, untreated animal groups at baseline and terminal day were included to control for potential age-related changes in gene expression over the extended study periods. Animal groups, time-points, and treatment schedules are summarized in Tables 20A and 20B, respectively.
Whole blood samples from animals were collected by retro-orbital bleed at selected time-points in accordance with the arthritis study schemas described in […], and transferred into sample collection tubes containing a 1.5× lysis solution and RPMI. Samples were processed into total RNA and cDNA. […] It was anticipated from these murine models would provide a better understanding of the relevant molecular response of arthritis induction and their potential correlation to the human disease condition.
Normal murine subject reference values (represented as normalized Ct or ΔCt values) were established for male DBA/1 mice (n=6 for the CIA study arm) and female BALB/c mice (n=6 for the KRN study arm). In both arms of the study, gene expression response of normal (naïve, non-immunized and untreated) murine subjects were evaluated in groups of 6 each at day 0 and day 60 for the CIA study arm, and at day 0 and day 21 for the KRN study arm (see Tables 20A and 20B).
Gene expression responses for the arthritis-induced murine model were evaluated for untreated mice at day 3 and vehicle-treated mice at days 7, 14 and 21 to characterize disease progression.

[1] = KRN Day 7, Dex-treated, group Average
[2] = KRN Day 7, Dex-treated, individual murine subject, listed as Dex
[3] = KRN Day 7 Dex, group Average, whole blood
[4] = KRN Day 7 Dex, individual mouse, whole blood, listed as Dex
[5] = KRN Day 14, Dex-treated, group Average
[6] = KRN Day 14, Dex-treated, individual murine subject

C[C@@H]1C[C@H]2[C@@H]3CCC4=CC(=O)C=C[C@]4(C)[C@@]3(F)[C@@H](O)C[C@]2(C)[C@@]1(O)C(=O)CO [Dexamethasone]
Normalized CT Value (Delta CT) IL1RAP_M [1]: 18.33 | Normalized CT Value (Delta CT) IL1RN—M [1]: 17.22 | Normalized CT Value (Delta CT) IL6_M [1]: 25.38 | Normalized CT Value (Delta CT) JUN_M [1]: 18.89 | Normalized CT Value (Delta CT) MEF2C—M [1]: 18.74 | Normalized CT Value (Delta CT) MMP9—M [1]: 13.84 | Normalized CT Value (Delta CT) NFKB1—M [1]: 15.89 | Normalized CT Value (Delta CT) PADI4—M [1]: 18.34 | Normalized CT Value (Delta CT) PLA2G7—M [1]: 14.34 | Normalized CT Value (Delta CT) PTPRC_M [1]: 13.18 | Normalized CT Value (Delta CT) PTX3_M [1]: 25.34 | Normalized CT Value (Delta CT) SERPINE1_M [1]: 19.43 | Normalized CT Value (Delta CT) TGFB1_M [1]: 14.97 | Normalized CT Value (Delta CT) TIMP1_M [1]: 24.84 | Normalized CT Value (Delta CT) TLR2_M [1]: 17.04 | Normalized CT Value (Delta CT) TLR4_M [1]: 17.74 | Normalized CT Value (Delta CT) TNFSF5—M [1]: 19.10 | Normalized CT Value (Delta CT) TNF_M [1]: 19.04 | Normalized CT Value (Delta CT) VEGF_M [1]: 20.01 | Normalized CT Value (Delta CT) IL1RAP_M [2]: 18.35 and 18.23 and 18.52 and 17.82 and 18.87 and 18.20 | Normalized CT Value (Delta CT) IL1RN—M [2]: 17.09 and 17.55 and 17.42 and 16.65 and 17.60 and 17.00 | Normalized CT Value (Delta CT) IL6_M [2]: 25.25 and 25.61 and 25.41 and 25.23 and 25.30 and 25.45 | Normalized CT Value (Delta CT) JUN_M [2]: 18.66 and 18.44 and 19.15 and 18.37 and 19.81 and 18.91 | Normalized CT Value (Delta CT) MEF2C—M [2]: 19.10 and 17.75 and 19.18 and 18.50 and 19.03 and 18.87 | Normalized CT Value (Delta CT) MMP9—M [2]: 13.85 and 13.83 | Normalized CT Value (Delta CT) NFKB1—M [2]: 16.06 and 14.93 and 16.25 and 15.43 and 16.52 and 16.16 | Normalized CT Value (Delta CT) PADI4—M [2]: 18.44 and 18.48 and 18.77 and 17.63 and 18.63 and 18.10 | Normalized CT Value (Delta CT) PLA2G7—M [2]: 14.36 and 13.77 and 14.74 and 13.71 and 14.94 and 14.53 | Normalized CT Value (Delta CT) PTPRC_M [2]: 13.36 and 12.55 and 13.38 and 12.76 and 13.68 and 13.33 | Normalized CT Value (Delta CT) PTX3_M [2]: 25.27 and 25.26 and 25.48 and 25.42 and 25.11 and 25.50 | Normalized CT Value (Delta CT) SERPINE1_M [2]: 19.43 and 18.99 and 19.66 and 19.03 and 19.81 and 19.67 | Normalized CT Value (Delta CT) TGFB1_M [2]: 15.24 and 14.22 and 15.34 and 14.62 and 15.36 and 15.02 | Normalized CT Value (Delta CT) TIMP1_M [2]: 24.76 and 24.74 and 24.73 and 24.34 and 25.09 and 25.40 | Normalized CT Value (Delta CT) TLR2_M [2]: 17.41 and 16.20 and 17.63 and 16.31 and 17.86 and 16.84 | Normalized CT Value (Delta CT) TLR4_M [2]: 17.64 and 17.44 and 18.32 and 16.84 and 18.23 and 17.96 | Normalized CT Value (Delta CT) TNFSF5—M [2]: 19.49 and 18.16 and 19.15 and 18.68 and 19.51 and 19.59 | Normalized CT Value (Delta CT) TNF_M [2]: 19.01 and 18.04 and 19.79 and 18.91 and 19.32 and 19.14 | Normalized CT Value (Delta CT) VEGF_M [2]: 20.04 and 20.59 and 20.09 and 19.19 and 20.31 and 19.85 | ABCA1_M Normalized CT Value (Delta CT) [3]: 17.55 | APAF1_M Normalized CT Value (Delta CT) [3]: 18.58 | CASP1_M Normalized CT Value (Delta CT) [3]: 17.59 | CASP3_M Normalized CT Value (Delta CT) [3]: 17.32 | CCR3_M Normalized CT Value (Delta CT) [3]: 18.72 | CD3Z_M Normalized CT Value (Delta CT) [3]: 16.52 | CD8A_M Normalized CT Value (Delta CT) [3]: 17.53 | CD14_M Normalized CT Value (Delta CT) [3]: 19.08 | CD86_M Normalized CT Value (Delta CT) [3]: 21.94 | CSPG2_M Normalized CT Value (Delta CT) [3]: 18.69 | F3_M Normalized CT Value (Delta CT) [3]: 22.96 | HMOX1_M Normalized CT Value (Delta CT) [3]: 17.15 | HSPA1A—M Normalized CT Value (Delta CT) [3]: 21.13 | ICAM1—M Normalized CT Value (Delta CT) [3]: 18.39 | IFI16—M Normalized CT Value (Delta CT) [3]: 16.29 | IL1B_M Normalized CT Value (Delta CT) [3]: 13.94 | IL10_M Normalized CT Value (Delta CT) [3]: 25.42 | ABCA1_M Normalized CT Value (Delta CT) [4]: 18.22 and 16.54 and 17.90 and 16.93 and 18.24 and 17.49 | APAF1_M Normalized CT Value (Delta CT) [4]: 18.85 and 18.10 and 18.95 and 18.00 and 19.01 and 18.59 | ARG2_M Normalized CT Value (Delta CT) [4]: 17.02 and 17.06 and 17.28 and 16.20 and 17.35 and 16.48 | CASP1_M Normalized CT Value (Delta CT) [4]: 17.64 and 16.61 and 18.07 and 17.26 and 18.15 and 17.79 | CASP3_M Normalized CT Value (Delta CT) [4]: 17.09 (2×) and 17.18 and 17.10 and 17.91 and 17.54 | CCR3_M Normalized CT Value (Delta CT) [4]: 18.09 and 18.62 and 18.24 and 18.86 and 18.96 and 19.54 | CD3Z_M Normalized CT Value (Delta CT) [4]: 16.64 and 15.65 and 16.81 and 16.13 and 16.77 and 17.10 | CD8A_M Normalized CT Value (Delta CT) [4]: 17.59 and 17.17 and 17.84 and 17.11 and 17.75 and 17.73 | CD14_M Normalized CT Value (Delta CT) [4]: 19.53 and 18.14 and 19.42 and 18.23 and 20.06 and 19.13 | CD86_M Normalized CT Value (Delta CT) [4]: 22.58 and 20.83 and 22.75 and 21.71 and 22.21 and 21.57 | CSPG2_M Normalized CT Value (Delta CT) [4]: 19.41 and 17.60 and 19.56 and 17.94 and 19.13 and 18.51 | F3_M Normalized CT Value (Delta CT) [4]: 22.15 and 23.54 and 24.16 and 21.10 and 25.46 and 21.36 | HMOX1_M Normalized CT Value (Delta CT) [4]: 17.27 and 16.34 and 17.85 and 15.97 and 18.08 and 17.40 | HSPA1A—M Normalized CT Value (Delta CT) [4]: 21.03 and 20.92 and 21.32 and 20.88 and 21.99 and 20.62 | ICAM1—M Normalized CT Value (Delta CT) [4]: 18.70 and 17.80 and 18.96 and 18.10 and 18.69 and 18.08 | IFI16—M Normalized CT Value (Delta CT) [4]: 16.35 and 14.96 and 17.17 and 16.15 and 16.73 and 16.40 | IL1B_M Normalized CT Value (Delta CT) [4]: 14.33 and 13.94 and 14.24 and 13.43 and 14.32 | IL10_M Normalized CT Value (Delta CT) [4]: 25.39 and 25.60 and 25.53 and 25.18 and 25.34 and 25.45 | Normalized CT Value (Delta CT) IL1RAP_M [5]: 18.59 | Normalized CT Value (Delta CT) IL1RN—M [5]: 17.70 | Normalized CT Value (Delta CT) IL6_M [5]: 25.48 | Normalized CT Value (Delta CT) JUN_M [5]: 19.67 | Normalized CT Value (Delta CT) MEF2C—M [5]: 20.33 | Normalized CT Value (Delta CT) MMP9—M [5]: 14.45 | Normalized CT Value (Delta CT) NFKB1—M [5]: 17.29 | Normalized CT Value (Delta CT) PADI4—M [5]: 18.79 | Normalized CT Value (Delta CT) PLA2G7—M [5]: 15.21 | Normalized CT Value (Delta CT) PTPRC_M [6]: 14.30 | Normalized CT Value (Delta CT) PTX3_M [6]: 25.29 | Normalized CT Value (Delta CT) SERPINE1_M [6]: 19.63 | Normalized CT Value (Delta CT) TGFB1_M [6]: 16.04 | Normalized CT Value (Delta CT) TIMP1_M [6]: 25.27 | Normalized CT Value (Delta CT) TLR2_M [6]: 18.52
